Entries after “also recorded” stand apart in the source; their conditions may differ. Where two headings read alike, the source gives them in different places.
Assays:
[1] = Mouse pharmacokinetics after single intraperitoneal dose (plasma and brain); format: in vivo; conditions: for AUC last / Cmax / AUC(0-t): mean ± SEM; for Kp / Tmax / half-life / Cmax / AUC(0-inf) / AUC(0-t): male, C57BL/6, mouse, ip; for Kp: brain and plasma, from AUCinf, read-out: brain/plasma exposure (AUC) ratio
Experimental: Characterization of exposure profile and brain distribution of minzasolmin in male C57BL/6 mice was performed at UCB BioPharma SPRL (Braine l’Alleud, Belgium). All the procedures were approved by the UCB Ethics Committee for Animal Experimentation and conducted in compliance with the Helsinki declaration and the guidelines of the European Community Council directive 86/609/EEC. UCB BioPharma is fully accredited by the Association for Assessment and Accreditation of Laboratory Animal Care (AAALAC). Male C57BL/6 mice (8 weeks of age, 20–27 g), purchased from Charles River Laboratories (Toulouse, France), were dosed intraperitoneally with 1 or 5 mg/kg of minzasolmin (10 mL/kg of 40% w/v Captisol® in water). Three mice were used per dose and per time of sampling (0.25, 0.5, 1, 2.5, and 6 h). Mice were anaesthetized with isofluorane and blood was collected from the vena cava into K2EDTA tubes. Animals were then perfused through the left ventricle with 20 mL of heparinized NaCl 0.9% (20 UI/mL), rate flow 20 mL/min, 1 min perfusion time. At the end of the procedure mice were sacrificed by cervical dislocation. Brain samples were weighed and collected in cold glass vials and stored at −20 °C, until bioanalysis. All blood samples were thoroughly but gently mixed following collection and placed directly on ice then centrifuged at 4 °C, 3000 g for 15 min within 30 min after sampling. The collected plasma was stored at −20 °C, until bioanalysis. Samples were analyzed by liquid chromatography-tandem mass spectrometry (LC-MS/MS). Results of minzasolmin concentrations in plasma and brain are reported in ng/mL and ng/g respectively. Pharmacokinetic profiling was performed by non-compartmental analysis, using Phoenix WinNonlin v6.4 software (Pharsight Inc., St. Louis, MO). All computations utilized the sparse sampling method according to the experimental composite sampling regimen.

[2] = tested on: total ASYN; assay: Immunohistochemical evaluation of total ASYN in brain sections, 3-month study; format: in vivo, mouse; conditions: for change in total ASYN immunolabeling vs vehicle-treated Line 61 transgenic mice: hippocampus and striatum (P < 0.0001); for total ASYN immunolabeling, mean: Line 61 tg, 3 months
Description: (§1) A transgenic mouse model of Parkinson’s disease overexpressing human wild-type ASYN under the murine Thy-1 promoter on a mixed C57Bl/6 background was used in the present studies (commonly referred to Line 61)[49]. The Line 61 transgenic mouse model of Parkinson’s disease develops extensive accumulation of ASYN in areas relevant to Parkinson’s disease[49]–[51], neurodegeneration (as evidenced by loss of tyrosine hydroxylase[52],[53] and dopamine transporter immunoreactivity[18] in the striatum), inflammation, and both motor and non-motor functional deficits. Multiple cohorts of mice were transferred from the University of California, San Diego to a Neuropore-funded AAALAC-accredited vivarium facility per a laboratory service agreement between Neuropore Therapies, Inc. and the laboratory of Dr. Eliezer Masliah under institutional animal care and use committee (IACUC) Protocol S02221. All in vivo testing was conducted by Neuropore personnel under Explora Biosciences animal care and use protocol (ACUP) number E15-016-2. Three-month-old male transgenic and age-matched non-transgenic littermate control mice were used and housed up to 5 per cage. Animals received free access to food and water prior to the experiment. The vivarium ambient room temperature was monitored daily and kept within a range of 68–72 degrees Fahrenheit. Animals were kept on a 12:12 diurnal light cycle, with lights on at 0600.
(§2) Minzasolmin was dissolved in a vehicle solution consisting of 40% Captisol (CyDex Pharmaceuticals, Inc.; Kansas, USA) in sterile water and administered at a volume of 0.1 ml/20 g of body weight. Animals received a Monday–Friday daily intraperitoneal injection of vehicle, or 1 or 5 mg/kg minzasolmin for approximately 90 days. Animals received treatment up to and including a final injection 1 h prior to euthanasia. All study solutions were blind coded and experimenters were blinded to genotype and treatment group assignments for the duration of the study, ex vivo evaluations (i.e., neuropathology sample processing and imaging, videotape scoring) and through penultimate data analyses (i.e., data quality control with documented exclusions prior to unblinding; unblinding required for a priori pairwise comparisons).
(§3) All subjects were euthanized within 1 h of the last treatment and brain and blood were collected. Tissue processing and imaging methods were conducted as described previously[17],[18],[52] and performed under a lab service agreement between UCSD and Neuropore Therapies. All samples were blind coded to genotype and treatment group throughout immune-histological processing and imaging. The right hemibrain was post-fixed in phosphate-buffered 4% paraformaldehyde (pH 7.4) at 4 °C for 48 and then serially sectioned into […] thick […] sections using a vibratome. Sections were free-floated and incubated overnight at 4 °C with primary antibodies. To confirm the specificity of primary antibodies, control experiments were performed in which sections were incubated overnight in the absence of primary antibody, pre-immune serum, or primary antibody pre-adsorbed for 48 h with 20-fold excess of the corresponding peptide. Tissue collection, processing, and imaging methods were conducted as described previously. Briefly, the right hemibrain was post-fixed in phosphate-buffered 4% paraformaldehyde (pH 7.4) at 4 °C for 48 h, and then serially sectioned into 40 µm thick coronal sections using a vibratome. Sections were free-floated and incubated overnight at 4 °C with primary antibodies. To confirm the specificity of primary antibodies, control experiments were performed in which sections were incubated overnight in the absence of primary antibody (data not shown). Immunolabeled sections were imaged with a Zeiss 63× (N.A. 1.4) objective on an Axiovert 35 microscope (Zeiss, Germany). Immunolabeling was evaluated as a corrected optical density across a field of view. […]

[3] = tested on: dopamine transporter (DAT); assay: Immunolabeling of striatal dopamine transporter (DAT), 3-month study; format: in vivo, mouse; conditions: for DAT immunolabeling in dorsal striatum, mean: 3 months
Description: as §1, §2
as §3, with “Briefly, the right hemibrain was post-fixed in phosphate-buffered 4% paraformaldehyde (pH 7.4) at 4 °C for 48 h, and then serially sectioned into 40 µm thick coronal sections using a vibratome. Sections were free-floated and incubated overnight at 4 °C with primary antibodies. To confirm the specificity of primary antibodies, control experiments were performed in which sections were incubated overnight in the absence of primary antibody (data not shown). Immunolabeled sections were imaged with a Zeiss 63× (N.A. 1.4) objective on an Axiovert 35 microscope (Zeiss, Germany).” left out

[4] = tested on: GFAP; assay: Immunolabeling of glial fibrillary acidic protein (GFAP), 3-month study; format: in vivo, mouse; conditions: for change in GFAP immunolabeling vs vehicle-treated Line 61 transgenic mice: cortex and hippocampus (P < 0.0001); for GFAP immunolabeling, mean: 3 months, adjusted P <0.0001
Description: as §1, §2, §3

[5] = brain, 1 mg/kg single i.p., C57/Bl6 mice
[6] = brain, 5 mg/kg single i.p., C57/Bl6 mice
[7] = plasma, 1 mg/kg single i.p., C57/Bl6 mice
[8] = plasma, 5 mg/kg single i.p., C57/Bl6 mice

With `CCCC[C@H](Cc1c[nH]c2ccccc12)NC(=O)c1cnc(N2CCN(C)CC2)s1` [minzasolmin] the AUC inf [1, 5] was 99.0 ng·h/g, the AUC last [1, 5] was 93.9 ± 4.2 ng·h/g and the AUC inf [1, 6] was 422 ng·h/g. The AUC last [1, 6] was 394 ± 21 ng·h/g, the “time of highest brain levels after dosing” value ([1]; brain, 1 and 5 mg/kg i.p.) was 0.5 h and the Kp ([1]; 1 mg/kg i.p.) was 0.32. The Kp ([1]; 5 mg/kg i.p.) was 0.26, the Tmax ([1]; brain, 1 mg/kg, brain, 1 mg/kg single i.p., C57/Bl6 mice, read-out: T max) was 30 min and the Tmax ([1]; brain, 5 mg/kg, brain, 5 mg/kg single i.p., C57/Bl6 mice, read-out: T max) was 30 min. It also gave a half-life [1, 5] of 33.6 min, a Cmax [1, 5] of 76 ± 4 ng/g and a half-life [1, 6] of 36 min. It also gave a Cmax [1, 6] of 292 ± 30 ng/g, an AUC(0-inf) [1, 7] of 308 ng·h/mL and a half-life [1, 7] of 41.4 min. It also gave an AUC(0-t) [1, 7] of 307 ± 13 ng·h/mL, a Cmax [1, 7] of 332 ± 18 ng/mL and an AUC(0-inf) [1, 8] of 1650 ng·h/mL. It also gave a half-life [1, 8] of 49.8 min, an AUC(0-t) [1, 8] of 1640 ± 86 ng·h/mL and a Cmax [1, 8] of 1320 ± 124 ng/mL. The Tmax ([1]; plasma, 1 mg/kg, plasma, 1 mg/kg single i.p., C57/Bl6 mice, read-out: T max) was 30 min, the Tmax ([1]; plasma, 5 mg/kg, plasma, 5 mg/kg single i.p., C57/Bl6 mice, read-out: T max) was 15 min and the Tmax ([1]; plasma, 5 mg/kg, plasma, 1 and 5 mg/kg i.p., read-out: time of maximum plasma concentration after dosing) was 15 to 30 min. The “change in total ASYN immunolabeling vs vehicle-treated Line 61 transgenic mice” value ([2]; 1 mg/kg, cortex (P < 0.05)) was “statistically significant decreases; also recorded: statistically significant reductions”, the “change in total ASYN immunolabeling vs vehicle-treated Line 61 transgenic mice” value ([2]; 5 mg/kg, cortex) was “statistically significant decreases; also recorded: statistically significant reductions” and the “effect of dose on total ASYN, 5 mg/kg compared to 1 mg/kg” value ([2]; cortex (P < 0.05) and hippocampus (P < 0.01), unpaired two tailed t tests) was “greater reductions”. The “total ASYN immunolabeling, mean” value ([2]; cortex, 1 mg/kg, corrected optical density, Line 61 tg/Vehicle 352.8, adjusted P 0.0148) was 282.1, the “total ASYN immunolabeling, mean” value ([2]; cortex, 5 mg/kg, Line 61 tg/Vehicle 352.8, adjusted P <0.0001) was 232.8 and the “total ASYN immunolabeling, mean” value ([2]; hippocampus, 1 mg/kg, Line 61 tg/Vehicle 392.9, adjusted P <0.0001) was 286.7. The “total ASYN immunolabeling, mean” value ([2]; hippocampus, 5 mg/kg, Line 61 tg/Vehicle 392.9, adjusted P <0.0001) was 229.7, the “effect of dose on total ASYN, 1 vs. 5 mg/kg” value ([2]; striatum) was “no statistically significant effect” and the “total ASYN immunolabeling, mean” value ([2]; striatum, 1 mg/kg, Line 61 tg/Vehicle 365.3, adjusted P <0.0001) was 265.4. For the same molecule, the “total ASYN immunolabeling, mean” value ([2]; striatum, 5 mg/kg, Line 61 tg/Vehicle 365.3, adjusted P <0.0001) was 245.5, the “change in striatal DAT immunolabeling vs vehicle-treated ASYN transgenic controls” value ([3]; 1 mg/kg, P < 0.05) was “statistically significant increases; also recorded: statistically significant normalizations” and the “change in striatal DAT immunolabeling vs vehicle-treated ASYN transgenic controls” value ([3]; 5 mg/kg, P < 0.0001) was “statistically significant increases; also recorded: statistically significant normalizations”. For the same molecule, the “DAT immunolabeling in dorsal striatum, mean” value ([3]; Line 61 tg/1 mg/kg (first group of that name), Line 61 tg/Vehicle 211.2, Non-tg/Vehicle 292.1, adjusted P 0.0117) was 255.3, the “DAT immunolabeling in dorsal striatum, mean” value ([3]; Line 61 tg/1 mg/kg as printed (second group of that name), Line 61 tg/Vehicle 211.2, adjusted P <0.0001) was 280.1 and the “dose effect on striatal DAT levels, 5 mg/kg compared to 1 mg/kg (towards a greater increase)” value ([3]; P = 0.0754, unpaired two tailed t test) was “statistical trend”. For the same molecule, the “change in GFAP immunolabeling vs vehicle-treated Line 61 transgenic mice” value ([4]; 1 mg/kg) was “decreased”, the “change in GFAP immunolabeling vs vehicle-treated Line 61 transgenic mice” value ([4]; 5 mg/kg) was “decreased” and the “effect of dose on GFAP levels, 1 vs. 5 mg/kg” value ([4]; cortex and hippocampus) was “no statistically significant effect”. For the same molecule, the “GFAP immunolabeling, mean” value ([4]; cortex, Line 61 tg/1 mg/kg (first group of that name), Line 61 tg/Vehicle 223.1) was 155.9, the “GFAP immunolabeling, mean” value ([4]; cortex, Line 61 tg/1 mg/kg as printed (second group of that name), Line 61 tg/Vehicle 223.1) was 169.3 and the “GFAP immunolabeling, mean” value ([4]; hippocampus, Line 61 tg/1 mg/kg (first group of that name), Line 61 tg/Vehicle 350.8) was 271.6. For the same molecule, the “GFAP immunolabeling, mean” value ([4]; hippocampus, Line 61 tg/1 mg/kg as printed (second group of that name), Line 61 tg/Vehicle 350.8) was 289.7.

Source: PMC10352257, “In vivo effects of the alpha-synuclein misfolding inhibitor minzasolmin supports clinical development in Parkinson’s disease” (NPJ Parkinson's Disease, 2023)
